Test results reported in patent publication US7342026B2, “Substituted quinolines for the treatment of protozoa and retrovirus co-infections” (priority 2001, dated 2008).
In brackets after ≈: the same amount, converted by molar mass. Where two headings read alike, the source gives them in different places. Marks after values point to notes of the source that are not given here.

Experiments:
[1] = system: amastigotes of Leishmania amazonensis; experiment: Amastigotes of Leishmania amazonensis in infected macrophages (leishmanicidal activity); type: cell-based; settings: for L. amazonensis IC100: 100% inhibitory concentration, intracellular amastigotes in BALB/c macrophages, 30 hours after addition
Method: The strain of Leishmania amazonensis is maintained by successive passages in “nude” mice (nu/nu). The amastigotes are isolated from the lesions developed on the footpads, and purified according to the method described by Antoine et al. (Parasitology, 1989, 99: 1).
The leishmanicidal activity of the quinolines is determined 30 hours after addition of the solutions of substituted quinolines. It is based on a more or less large, or even complete, decrease, firstly, in the size of the parasitophorous vacuoles and, secondly, in the number of live intracellular amastigotes.

macrophages = experiment: Cytotoxicity on macrophages; type: cell-based, BALB/c mice
Method: The macrophages, which will be used as host cells for the leishmania, are obtained after multiplication and differentiation of medullary precursors from BALB/c mice. This culture is prepared in the presence of supernatant from a conditioned line of fibroblasts L-929, and source of “Macrophage Colony Stimulating Factor”. After culturing for 5 days on a hydrophobic support, the adherent macrophages are recovered and then distributed in flat-bottomed 96-well plates for cell culture, in a proportion of 4×10^4 macrophages per well. The macrophages are then infected with purified amastigotes (4 parasites per macrophage) and incubated at 34° C. for 24 hours to allow development of parasitophorous vacuoles and multiplication of parasites. Under these conditions, more than 95% of the macrophages are infected.
The solutions of the substituted quinolines to be tested are prepared in DMSO before being added, at various concentrations, to the infected macrophage cultures.
The results obtained with the substituted quinolines, assigned Nos. 1, 2, 4, 6 to 11, 13 to 20, 23 to 34, 37 and 38 in Table I, are given in Table II below as regards their activity on the amastigotes of Leishmania amazonensis, of Leishmania donovani and of Leishmania infantum, and also their cytotoxicity with respect to the macrophages.

[2] = system: amastigotes of Trypanosoma cruzi (Tulahuen strain); experiment: Amastigotes of Trypanosoma cruzi in peritoneal macrophages; type: cell-based; settings: for IC50: read-out: T. cruzi (amastigotes) IC50
Method: c) Tests on Amastigotes of Trypanosoma cruzi
Peritoneal macrophages from Balb/c mice are collected, washed in Dulbecco PBS and then distributed in 96-well plates in a proportion of 3×10^4 cells per 100 μl and per well, in RPMI-1640 medium supplemented with 10% FCS and antibiotics.
After 24 hours at 37° C., 10^5 trypomastigotes are added with serial 2-fold dilutions of the various substituted quinolines. The cultures are then incubated at 37° C. for 4 days in a humid atmosphere (5% CO2-95% air). After fixing, and then staining with Giemsa, the antiparasitic activity is assessed by counting the extracellular trypomastigotes and the intracellular amastigotes.

[3] = system: circulating forms of Trypanosoma brucei (S427 strain); experiment: microbe, parasite or virus in culture; type: cell-based; settings: for IC50: read-out: T. brucei IC50
Method: d) Tests on the Circulating Forms of Trypanosoma brucei
The circulating forms of Trypanosoma brucei are cultured in MEM medium (minimum essential medium; GIBCO-BRL, No. 072-1100) to which Earle's salts have been added and supplemented with 1 mg/ml of glucose, 2.2 mg/ml of NaHCO3, 10 mM of Hepes, 2 mM of sodium pyruvate, 0.2 mM of 2-mercaptoethanol, 0.1 mM of hypoxanthine and 15% of inactivated horse serum.
The cultures are maintained at 37° C. in 24-well plates in a humid atmosphere (5% CO2-95% air) and the passages are carried out every 2 or 3 days at a density of 10^3 to 10^5 trypomastigotes per ml. The activity of the substituted quinolines is tested in triplicate in 96-well plates in which 10^3 parasites originating from an exponential growth phase are distributed per well, in the presence of the various solutions of substituted quinolines in a final volume of 200 μl. After culturing for 48 hours, the trypanocidal activity is assessed by counting, with a Neubauer cell, the number of live parasites per well.

CEM4fx cells = experiment: Cytotoxicity with respect to host CEM4fx cells (MTT bioconversion assay); type: cell-based
Method: (§1) Moreover, the cytotoxicity of the quinolines with respect to the host cells is measured by an MTT [3-(4,5-dimethylthiazol-2-yl)-2,5-diphenyltetrazolium bromide]bioconversion assay. All the assays are carried out in triplicate.

[4] = system: HIV-1 (molecular clone pLN4-3); experiment: microbe, parasite or virus in culture; type: cell-based, human immunodeficiency virus (HIV-1); settings: read-out: Antiretroviral activity IC50
Text: e) Tests on the Replication of HIV-1
CEM4fx cells are infected de novo with the molecular clone pLN4-3 of HIV-1, and simultaneously treated with the substituted quinolines to be tested, dissolved beforehand in DMSO. The virus multiplies for three days, and then the presence of infectious virions is detected in the culture supernatant (RPMI medium) by reinfecting “P4” cells which have a reporter gene which is expressed when they are infected with the virus. The viral load is quantified after culturing for 72 hours, by two methods: estimation of the viral load by infection of HeLa-βgal CD4^+ cells and determination of the amount of viral protein p24 by an ELISA assay.

[5] = Cytotoxicity with respect to host CEM4fx cells (MTT bioconversion assay); type: cell-based; settings: human, CEM4fx cells (host cells)
Method: as §1

[6] = system: Leishmania infantum (MHOM/FR/91/LEM2259V); experiment: Balb/c mice infected with visceral leishmaniasis (Leishmania infantum); type: in vivo; settings: 10 days, quinolines oral 25 mg/kg/day, Glucantime subcutaneous 100 mg/kg/day; for Number of parasites in the liver per gram / Number of parasites in the spleen per gram: n=8; for % reduction in the number of parasites in the liver / % reduction in the number of parasites in the spleen: versus without treatment
Method: b) Tests Carried on Laboratory Animals Infected with Visceral Leishmaniasis (Leishmania infantum): 1/Laboratory Animals and Parasites
The Balb/c mice were infected with Leishmania infantum parasites at the promastigote stage (reference: MHOM/FR/91/LEM2259V), a strain isolated from a patient carrying AIDS. This strain is maintained in Schneider's drosophila culture medium (Gibco, USA) supplemented with 20% of fetal calf serum. The infectious promastigotes are cultured for 7 days and then counted. Each mouse is then infected intravenously with 0.2 ml of culture medium containing 10^7 promastigotes.
Counting of amastigotes forms in the liver and spleen.
After the treatments have been stopped and the animals sacrificed, the viscera, liver and spleen are weighed and collected in a Petri dish. Each organ is mounted several times on a degreased glass slide which, fixed and stained by the May-Grünwald-Giemsa technique, makes it possible to determine the number of amastigote forms per 500 nucleated cells.
The results are expressed in Table VI.

[7] = system: amastigotes of Leishmania donovani (MHOM/ET/67/L82); experiment: microbe, parasite or virus in culture; type: cell-based
Text: (§2) b) Tests on Amastigotes of Leishmania donovani and Leishmania infantum
(§3) The Leishmania donovani and Leishmania infantum strains are maintained by successive passages in golden hamsters. The amastigotes are isolated from the spleens of the infected hamsters and brought into contact with the purified macrophages.
(§4) Twenty-four hours after intraperitoneal injection of Balb/c mice with a 2% starch solution, the peritoneal macrophages of these mice are collected, washed in Dulbecco PBS and then distributed in Lab-tek® culture chambers, in a proportion of 4×10^4 cells per 100 μl per well in RPMI-1640 medium supplemented with 10% of FCS and antibiotics. After 24 hours at 37° C. in a humid atmosphere (5% CO2), the macrophages are brought into contact with purified amastigotes (3 parasites per macrophage) in a final volume of 200 μl for 4 hours. The medium is then removed in order to eliminate the extracellular parasites, and replaced with 100 μl of fresh medium.
(§5) Twenty-four hours after the beginning of infection, the solutions of substituted quinolines prepared as described in paragraph a) above are added and the leishmanicidal activity is determined after 48 hours by counting the number of parasites still alive in the fixed and Giemsa-stained cells.

[8] = system: amastigotes of Leishmania infantum (IPZ229/1/89); experiment: microbe, parasite or virus in culture; type: cell-based
Text: as §2, §3, §4, §5

[9] = system: amastigotes of Leishmania infantum (MHOM/MA(BE)67); experiment: Amastigotes of Leishmania infantum (MHOM/MA(BE)67) in peritoneal macrophages; type: cell-based
[10] = system: Leishmania amazonensis (IFLA/BR/67/PH8); settings: 15 days, quinolines oral 25 mg/kg/day, Glucantime subcutaneous 100 mg/kg (28 mg Sbv/kg)
Text: a) Tests Carried Out on Laboratory Animals Infected with Cutaneous Leishmaniasis (Leishmania amazonensis):
The experimental animals are male or female approximately 6- to 8-week-old Balb/c mice weighing 18-24 g, subsequently reared for reproduction in the animal house of the Instituto de Investigaciones en Ciencias de la Salud (IICS), Asuncion, Paraguay. Golden hamsters (Mesocricetus auratus) are used to maintain these strains and as reservoirs for L. amazonensis parasites.
The Balb/c mice are infected with Leishmania amazonensis parasites, at the amastigote stage of the reference strain IFLA/BR/67/PH8, subcutaneously in the ventral pad of the right rear foot, the left foot remaining as a control. The amount of amastigotes inoculated is 2×10^6 amastigotes in 50 μl of phosphate buffer saline (PBS) for L. amazonensis.
The treatments begin once the infection is well established, mainly in general 5 to 6 weeks after inoculation of the L. amazonensis amastigotes. The reference medicinal product chosen is Glucantime® or meglumine antimoniate from Aventis (France).
The untreated control mice are given 50 μl of a solution of Tween 80 with PBS.
Measurement of the lesion: the diameters of the lesions on the infected foot and on the control foot are measured using a micrometer with 1/10 mm graduations, once a week for the duration of the experiment. The first measurements begin 48 hours after inoculation of the parasites. Calculating the difference in the two measurements gives the thickness of the lesion.
The 5 ml of puree obtained are centrifuged twice. The layer containing the amastigotes is subjected to counting of the number of parasites using a Neubauer cell. Five counts are performed on each amastigote layer. The number of amastigote forms is determined using the Stauber formula which takes into account the weight of the lesion: A/N×W×coefficient of the Neubauer cell • A=number of amastigotes, N=number of nuclei W=weight of the lesion
The results are expressed by the calculation of the arithmetic mean of the diameters of the lesions measured once a week and, at the end of the protocol, after sacrifice of the mice, of the weights of the lesions and of the number of amastigotes. A Student's test (t-test) is used for the statistical analysis of all the data. The comparison is made between “control” groups with a “treatment” group per pair. A value of P<0.05 is considered to be statistically significant.

[11] = Balb/c peritoneal macrophages, 4 days
[12] = HIV-1 replication in CEM4fx cells, 72 hours
[13] = Trypanosoma cruzi, TULAHUEN, Peritoneal macrophage, in Mus musculus, 96 h
[14] = amastigotes in Balb/c peritoneal macrophages, 48 hours

| SMILES | L. amazonensis IC100 [1] [µg/mL] | Cytotoxicity on macrophages (macrophages; macrophages from BALB/c mice) [µg/mL] | IC50 [2, 11] [µM] | IC50 (CEM4fx cells) [µM] | IC50 [4, 12] [µM] | Cytotoxicity on macrophages (macrophages; BALB/c, mouse) [µg/mL] | IC50 [2, 13] [µM] | IC50 ([3]; Trypanosoma brucei, 48 h) [µM] | Number of parasites in the liver per gram [6] | Number of parasites in the spleen per gram [6] | % reduction in the number of parasites in the liver [6] [%] | % reduction in the number of parasites in the spleen [6] [%] | other results |
| --- | --- | --- | --- | --- | --- | --- | --- | --- | --- | --- | --- | --- | --- |
| CCCCCc1ccc2ccccc2n1 [Quinoline 20] | >50 | >100 | 19 | 9 | 2 | – | – | – | – | – | – | – | IC50 ([3]; circulating forms, culturing for 48 hours): 13 µM |
| O=CC=Cc1ccc2ccccc2n1 [Quinoline 9, 3-(2-quinolyl)propenal] | 0.781 | – | – | – | – | 1.56 | 5 | 19 | 3.8 × 10^6 a, e per gram | 2.2 × 10^6 b per gram | −91.6 | −47.6 | IC50 [5]: 2 µM; IC50 ([4]; Human immunodeficiency virus 1, 72 h): 0.6 µM |
| C[Si](C)(C)C#Cc1ccc2ccccc2n1 [Quinoline 26] | – | 1.56 | 8 | 3 | 0.9 | – | – | – | – | – | – | – | L. amazonensis IC100 ([1]; listed as 26): 12.5 µg/mL; L. donovani IC50 [7, 14]: 1.7 µg/mL; L. infantum (IPZ229/1/89) IC50 [8, 14]: 10.9 µg/mL |
| COC(=O)/C=C/c1ccc2ccccc2n1 [Quinoline 23, methyl E-3-(2-quinolyl)-2-propenoate] | 12.5 | – | – | – | – | 50 | 15 | 16 | 1.8 × 10^7 d per gram | 1.5 × 10^6 c, f per gram | −60.0 | −64.3 | activity on Leishmania amazonensis (in words) ([1]; comment on Table II): marked activity; IC50 ([7]; Leishmania donovani, Peritoneal macrophage, in Mus musculus, 48 h, read-out: L. donovani IC50): 3.3 to 30 µg/mL (≈ 15.5 to 141 µM); activity on Leishmania donovani (in words) ([7]; comment on Table II): marked activity; IC50 ([8]; Leishmania infantum, Peritoneal macrophage, in Mus musculus, 48 h, read-out: L. infantum (IPZ229/1/89) IC50): 0.4 to 2.2 µg/mL (≈ 1.88 to 10.3 µM); activity on the IPZ229/1/89 strain of Leishmania infantum (in words) ([8]; comment on Table II): marked activity; IC50 ([9]; Leishmania infantum, Peritoneal macrophage, in Mus musculus, 48 h, read-out: L. infantum (MHOM/MA (BE) 67) IC50): 26 µM; activity on the MHOM/MA(BE)67 strain of Leishmania infantum (in words) ([9]; comment on Table II): less advantageous; activity on Trypanosoma cruzi (in words) ([2]; comment on Table III): less advantageous; activity on Trypanosoma brucei (in words) ([3]; comment on Table III): less advantageous; Mean of the number of parasites in the lesion per gram ([10]; n=8): 3.1 × 10^6 per gram; Weight of lesions (mean ± standard deviation) ([10]; n=8): 0.059 ± 0.010 g; % reduction in the number of parasites in the lesion ([10]; versus untreated controls): −88%** |
